The values that follow come from patent US10329309B2, “3-(3H-imidazo[4,5-B]pyridin-2-yl)-1H-pyrazolo[4,3-B]pyridines and therapeutic uses thereof” (Samumed, LLC, priority 2015, dated 2019).

What all share (type): cell-based
The subject of assay [1] is IL-6 (THP-1 cells). The assay can be described thus: Inhibition of IL-6 in LPS-stimulated THP-1 monocytes (HTRF). The note with it: Homo sapiens; for EC50: LPS 500 ng/mL, IL-6 by HTRF; for inhibition at 10 µM: LPS stimulated, IL-6, at 10 μM, read-out: percent inhibition at 10 μM (given for EC50 of >10 μM). The method in brief:
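IL-6 release was read as the HTRF 665/620 nm ratio after 22 h of 500 ng/mL LPS at 37 °C. Before stimulation, THP-1 cells kept 24 h in 1% FBS were exposed 2 h to a 10-point 1:3 compound series starting at 10 μM, in 0.1% DMSO. Four-parameter EC50s came from DMSO-normalized duplicates, with % inhibition at 10 μM reported beyond 10 μM.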
For orientation: In TR-FRET formats the signal depends on donor and acceptor labels being close together.

Assay [2] relates to SW480 colon cancer cells. The assay can be described thus: Cell viability assay (CellTiter-Blue), four days. The note with it: Homo sapiens, 96 h; for EC50: CellTiter-Blue cell viability; for inhibition at 10 µM: read-out: percent inhibition at 10 μM (given for EC50 of >10 μM). In outline:
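Four-day viability readout in SW480 cells: compound at 0.0045–10 μM (1:3 series), DMSO controls in eight replicates, CellTiter-Blue fluorescence after ~3 h. Values are regression-derived EC50s, or percent inhibition at 10 μM when EC50 exceeds 10 μM.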
In general terms: The colour change of resazurin is a common sign of viable cells or microbes.

Assay [3] has as its system primary human fibroblasts derived from IPF patients (LL29 cells), α-smooth muscle actin (αSMA). Briefly: Inhibition of the fibrotic process: TGF-β1-treated primary human fibroblasts from IPF patients, αSMA staining. The following applies: Fibroblast, 96 h, 4 days; for EC50: LL29 fibroblasts from IPF patients, TGF-β1 20 ng/mL, inhibition of fibrotic process; for inhibition at 10 µM: LL29 fibroblasts, TGF-β1 treated, read-out: percent inhibition at 10 μM (given for EC50 of >10 μM). In outline: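 Potency reflects suppression of TGF-β1-driven αSMA expression in IPF patient fibroblasts over 4 days. Values are EC50s from normalized αSMA-positive cell counts, with % inhibition at 10 μM when EC50 exceeded 10 μM.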

Where only a bound is given, the exact number is not on record here.

As usually defined, the EC50 is the concentration needed to bring the measured effect to its halfway point. A lower EC50 goes with greater potency. A word on the inhibition: it is the relative decrease from the control value, in per cent. `CC(C)C(=O)Nc1cncc(-c2ccc3[nH]nc(-c4nc5c(N6CCN(C)CC6)ccnc5[nH]4)c3n2)c1` [Compound 233, N-(5-(3-(7-(4-methylpiperazin-1-yl)-3H-imidazo[4,5-b]pyridin-2-yl)-1H-pyrazolo [4,3-b]pyridin-5-yl)pyridin-3-yl)isobutyramide]: the EC50 in assay [1] was greater than 10 µM; in assay [2], greater than 10 µM; in assay [3], 4.84 µM. The inhibition at 10 µM amounted to 16.4% in assay [1] and 0% in assay [2].

On to `CN1CCN(c2ccnc3[nH]c(-c4n[nH]c5ccc(-c6cncc(NC(=O)C7CCCC7)c6)nc45)nc23)CC1` [Compound 246, N-(5-(3-(7-(4-Methylpiperazin-1-yl)-3H-imidazo[4,5-b]pyridin-2-yl)-1H-pyrazolo[4,3-b]pyridin-5-yl)pyridin-3-yl)cyclopentanecarboxamide], for which the EC50 in assay [1] was greater than 10 µM; in assay [2], greater than 10 µM; in assay [3] it was 2.24 µM. Besides, the inhibition at 10 µM in assay [1] is 15.7%; in assay [2], 0%.

`CN1CCN(c2ccnc3[nH]c(-c4n[nH]c5ccc(-c6cncnc6)nc45)nc23)CC1` [Compound 251, 3-(7-(4-Methylpiperazin-1-yl)-3H-imidazo[4,5-b]pyridin-2-yl)-5-(pyrimidin-5-yl)-1H-pyrazolo[4,3-b]pyridine]: the values for the EC50 in assay [1], in assay [2] and in assay [3] were greater than 10 µM, greater than 10 µM and 4.36 µM, respectively. Further, the inhibition at 10 µM stood at 8.3% in assay [1] and 0% in assay [2].

Regarding `c1cncc(-c2ccc3[nH]nc(-c4nc5cccnc5[nH]4)c3n2)c1` [Compound 256, 3-(3H-imidazo[4,5-b]pyridin-2-yl)-5-(pyridin-3-yl)-1H-pyrazolo[4,3-b]pyridine], the EC50 in assay [1], in assay [2] and in assay [3] was greater than 10 µM each time. Moreover, the inhibition at 10 µM in assay [1] worked out at 24.4%; in assay [2], 22.2%; in assay [3] it was 10.4%.

`O=C(Cc1ccccc1)Nc1cncc(-c2ccc3[nH]nc(-c4nc5cccnc5[nH]4)c3n2)c1` [Compound 262, N-(5-(3-(3H-imidazo[4,5-b]pyridin-2-yl)-1H-pyrazolo[4,3-b]pyridin-5-yl)pyridin-3-yl)-2-phenylacetamide]: the EC50 in assay [1], in assay [2] and in assay [3] was greater than 10 µM each time. Further, the inhibition at 10 µM in assay [1] is 17.3%; in assay [2], 5.5%; in assay [3], 0%.

Turning to `CC(C)(C)CC(=O)Nc1cncc(-c2ccc3[nH]nc(-c4nc5cccnc5[nH]4)c3n2)c1` [Compound 268, N-(5-(3-(3H-Imidazo[4,5-b]pyridin-2-yl)-1H-pyrazolo[4,3-b]pyridin-5-yl)pyridin-3-yl)-3,3-dimethylbutanamide], the EC50 in assay [1] was greater than 10 µM; in assay [2], greater than 10 µM; in assay [3], 7.2 µM. In addition, the values for the inhibition at 10 µM in assay [1] and in assay [2] were 32.5% and 0%, respectively.

As for `O=C(Nc1cncc(-c2ccc3[nH]nc(-c4nc5cccnc5[nH]4)c3n2)c1)C1CCCCC1` [Compound 275, N-(5-(3-(3H-Imidazo[4,5-b]pyridin-2-yl)-1H-pyrazolo[4,3-b]pyridin-5-yl)pyridin-3-yl)cyclohexanecarboxamide], the 50% effective concentration (EC50) in assay [1] was greater than 10 µM; in assay [2] it was greater than 10 µM; in assay [3], 3.96 µM. Further, the inhibition at 10 µM in assay [1] was found to be 33.1%; in assay [2], 2.6%.

Take `CCC(=O)Nc1cncc(-c2ccc3[nH]nc(-c4nc5c(-c6ccsc6)ccnc5[nH]4)c3n2)c1` [Compound 281, N-(5-(3-(7-(thiophen-3-yl)-3H-imidazo[4,5-b]pyridin-2-yl)-1H-pyrazolo[4,3-b]pyridin-5-yl)pyridin-3-yl)propionamide]: the EC50 in assay [1], in assay [2] and in assay [3] was greater than 10 µM throughout. Besides, the inhibition at 10 µM was found to be 25% in assay [1], 24.2% in assay [2] and 21.4% in assay [3].
